From patent publication US8158810B2 (Gilead Sciences, Inc., priority 2006, dated 2012)

Molecular target: T1, hMAO-A (Homo sapiens, UniProt P21397)
T1 construct: purchased Sigma M7316
T1 sequence (P21397 1-527): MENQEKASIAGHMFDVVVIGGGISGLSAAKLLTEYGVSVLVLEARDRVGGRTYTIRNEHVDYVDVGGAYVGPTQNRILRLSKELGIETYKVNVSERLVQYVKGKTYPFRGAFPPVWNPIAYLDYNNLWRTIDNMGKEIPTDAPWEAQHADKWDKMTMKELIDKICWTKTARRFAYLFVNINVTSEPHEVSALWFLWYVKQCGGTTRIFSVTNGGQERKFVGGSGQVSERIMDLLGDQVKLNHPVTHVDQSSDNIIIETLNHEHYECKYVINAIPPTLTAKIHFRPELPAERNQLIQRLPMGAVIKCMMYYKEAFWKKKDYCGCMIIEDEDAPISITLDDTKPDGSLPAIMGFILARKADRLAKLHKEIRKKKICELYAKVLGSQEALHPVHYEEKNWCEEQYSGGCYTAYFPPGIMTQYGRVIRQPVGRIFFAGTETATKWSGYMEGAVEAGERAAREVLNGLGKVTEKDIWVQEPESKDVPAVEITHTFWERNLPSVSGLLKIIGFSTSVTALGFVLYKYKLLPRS
Experiment: MAO-A inhibition assay
Assay type: biochemical
Conditions: up to 10 μM; No = no inhibition; printed in the IC50 hMAO-A column
Method: MAO-A (Sigma M7316) and MAO-B (Sigma M7441) inhibition assays were conducted in 96-well micro-plates according to the method described by Zhou et al. [Analytical Biochemistry 253, 169-174, 1997]. […] Reactions were initiated by the addition of a pre-mixed solution of tyramine, horseradish peroxidase and Amplex Red, and were allowed to proceed at 37° C. for 30 min. Enzyme activities were determined by measuring absorbance at 570 nm (SpectralMax Plate reader), absorbance of oxidized Amplex Red generated by this horseradish peroxidase-coupled reaction. Nonspecifically formed products were determined in the presence of 2 and 10 µM clorgyline and deprenyl for MAO-A and MAO-B, respectively. IC50 values were determined by fitting concentration-inhibition data to sigmoidal dose-response curves with two-floating parameters: IC50 and Hill coefficient.

| Structure (SMILES) | hMAO-A inhibition up to 10 μM |
| --- | --- |
| O=c1c(-c2ccc(O)cc2)coc2cc(OCc3cc(-c4cccc(C(F)(F)F)c4)on3)ccc12 [PT-45, 3-(4-hydroxyphenyl)-7-({5-[3-(trifluoromethyl)phenyl]isoxazol-3-yl}methoxy)chromen-4-one] | No |
| COC(=O)c1cnc(COc2ccc3c(=O)c(-c4ccc(O)cc4)coc3c2)o1 [PT-47, methyl 2-{[3-(4-hydroxyphenyl)-4-oxochromen-7-yloxy]methyl}-1,3-oxazole-5-carboxylate] | No |
| O=C(O)c1cnc(COc2ccc3c(=O)c(-c4ccc(O)cc4)coc3c2)o1 [PT-49, 2-{[3-(4-hydroxyphenyl)-4-oxochromen-7-yloxy]methyl}-1,3-oxazole-5-carboxylic acid] | No |
| O=c1c(-c2ccc(O)cc2)coc2cc(OC[C@H](O)CNCc3cccc(C(F)(F)F)c3)ccc12 [PT-53, 7-[(2R)-2-hydroxy-3-({[3-(trifluoromethyl)phenyl]methyl}amino)propoxy]-3-(4-hydroxyphenyl)chromen-4-one] | No |
| O=c1c(-c2ccc(O)cc2)coc2cc(OCNCc3cccc(C(F)(F)F)c3)ccc12 [PT-54, 3-(4-hydroxyphenyl)-7-[({[3-(trifluoromethyl)phenyl]methyl}amino)methoxy]chromen-4-one] | No |
| O=c1c(-c2ccc(O)cc2)coc2cc(OC[C@H](O)CNCc3cc(F)cc(F)c3)ccc12 [PT-55, 7-((2R)-3-{[(3,5-difluorophenyl)methyl]amino}-2-hydroxypropoxy)-3-(4-hydroxyphenyl)chromen-4-one] | No |
| C[C@@H](NCC(=O)COc1ccc2c(=O)c(-c3ccc(O)cc3)coc2c1)c1ccc(F)cc1 [PT-56, 7-(3-{[(1R)-1-(4-fluorophenyl)ethyl]amino}-2-oxopropoxy)-3-(4-hydroxyphenyl)chromen-4-one] | 36% |
| O=c1c(-c2ccc(O)cc2)coc2cc(OCCCc3ccccc3)ccc12 [PT-57, 3-(4-hydroxyphenyl)-7-(3-phenylpropoxy)chromen-4-one] | No |
| O=c1c(-c2ccc(O)cc2)coc2cc(OCc3nnc(-c4cccc(F)c4)o3)ccc12 [PT-58, 7-{[5-(3-fluorophenyl)(1,3,4-oxadiazol-2-yl)]methoxy}-3-(4-hydroxyphenyl)chromen-4-one] | No |
| O=c1c(-c2ccc(O)cc2)coc2cc(OCc3nnc(-c4cccc(C(F)(F)F)c4)o3)ccc12 [PT-60, 3-(4-hydroxyphenyl)-7-({5-[3-(trifluoromethyl)phenyl](1,3,4-oxadiazol-2-yl)}methoxy)chromen-4-one] | No |
| O=c1c(-c2ccc(O)cc2)coc2cc(OCc3cnc(-c4ccccc4)o3)ccc12 [PT-61, 3-(4-hydroxyphenyl)-7-[(2-phenyl(1,3-oxazol-5-yl))methoxy]chromen-4-one] | No |
| O=c1c(-c2ccc(O)cc2)coc2cc(OCc3nnc(-c4ccccc4Cl)s3)ccc12 [PT-64, 7-{[5-(2-chlorophenyl)(1,3,4-thiadiazol-2-yl)]methoxy}-3-(4-hydroxyphenyl)chromen-4-one] | No |
| Cc1nc(-c2ccc(C(F)(F)F)cc2)sc1COc1ccc2c(=O)c(-c3ccc(C#N)cc3)coc2c1 [PT-65, 4-[7-({4-methyl-2-[4-(trifluoromethyl)phenyl](1,3-thiazol-5-yl)}methoxy)-4-oxochromen-3-yl]benzenecarbonitrile] | No |
| Cc1nc(-c2ccc(C(F)(F)F)cc2)sc1COc1ccc2c(=O)c(-c3ccc(NS(C)(=O)=O)cc3)coc2c1 [PT-66, 3-{4-[(methylsulfonyl)amino]phenyl}-7-({4-methyl-2-[4-(trifluoromethyl)phenyl](1,3-thiazol-5-yl)}methoxy)chromen-4-one] | No |

Further lines, results first:

| hMAO-A inhibition up to 10 μM | Structure (SMILES) |
| --- | --- |
| No | COc1ccc(-c2coc3cc(OCc4sc(-c5ccc(C(F)(F)F)cc5)nc4C)ccc3c2=O)cn1 [PT-67, 3-(6-methoxy(3-pyridyl))-7-({4-methyl-2-[4-(trifluoromethyl)phenyl](1,3-thiazol-5-yl)}methoxy)chromen-4-one] |
| No | N#Cc1ccc(-c2coc3cc(OCc4nnc(-c5cc(F)cc(C(F)(F)F)c5)o4)ccc3c2=O)cc1 [PT-68, 4-[7-({5-[5-fluoro-3-(trifluoromethyl)phenyl](1,3,4-oxadiazol-2-yl)}methoxy)-4-oxochromen-3-yl]benzenecarbonitrile] |
| No | N#Cc1ccc(-c2coc3cc(OCc4cc(-c5cccc(C(F)(F)F)c5)no4)ccc3c2=O)cc1 [PT-69, 4-[4-oxo-7-({3-[3-(trifluoromethyl)phenyl]isoxazol-5-yl}methoxy)chromen-3-yl]benzenecarbonitrile] |
| No | CS(=O)(=O)Nc1ccc(-c2coc3cc(OCc4noc(-c5cc(F)cc(C(F)(F)F)c5)n4)ccc3c2=O)cc1 [PT-70, 7-({5-[3-fluoro-5-(trifluoromethyl)phenyl](1,2,4-oxadiazol-3-yl)}methoxy)-3-{4-[(methylsulfonyl)amino]phenyl}chromen-4-one] |
| No | CS(=O)(=O)c1ccc(-c2coc3cc(OCc4noc(-c5cc(F)cc(C(F)(F)F)c5)n4)ccc3c2=O)cc1 [PT-71, 7-({5-[3-fluoro-5-(trifluoromethyl)phenyl](1,2,4-oxadiazol-3-yl)}methoxy)-3-[4-(methylsulfonyl)phenyl]chromen-4-one] |
| No | CC(=O)c1cccc(-c2coc3cc(OCc4noc(-c5cc(F)cc(C(F)(F)F)c5)n4)ccc3c2=O)c1 [PT-73, 3-(3-acetylphenyl)-7-({5-[3-fluoro-5-(trifluoromethyl)phenyl](1,2,4-oxadiazol-3-yl)}methoxy)chromen-4-one] |
| No | O=c1c(-c2ccc(O)cc2)coc2cc(OCc3nnc(-c4cc(F)cc(C(F)(F)F)c4)o3)ccc12 [PT-74, 7-({5-[3-fluoro-5-(trifluoromethyl)phenyl](1,3,4-oxadiazol-2-yl)}methoxy)-3-(4-hydroxyphenyl)chromen-4-one] |
| No | O=c1c(-c2ccc(O)cc2)coc2cc(OCc3nnc(-c4ccc(F)cc4)o3)ccc12 [PT-81, 7-{[5-(4-fluorophenyl)(1,3,4-oxadiazol-2-yl)]methoxy}-3-(4-hydroxyphenyl)chromen-4-one] |
| No | O=c1c(-c2ccc(O)cc2)coc2cc(OCc3ccncc3)ccc12 [PT-82, 3-(4-hydxoxyphenyl)-7-(4-pyridylmethoxy)chromen-4-one] |
| No | O=C(COc1ccc2c(=O)c(-c3ccc(O)cc3)coc2c1)Nc1ccccc1C(F)(F)F [PT-84, 2-[3-(4-hydroxyphenyl)-4-oxochromen-7-yloxy]-N-[2-(trifluoromethyl)phenyl]-acetamide] |
| No | O=c1c(-c2ccc(O)cc2)coc2cc(OCCc3ccccc3)ccc12 [PT-87, 3-(4-hydroxyphenyl)-7-(2-phenylethoxy)chromen-4-one] |
| 34% | O=c1c(-c2ccc(O)cc2)coc2cc(OCCOc3ccc(Cl)cc3)ccc12 [PT-89, 7-[2-(4-chlorophenoxy)ethoxy]-3-(4-hydroxyphenyl)chromen-4-one] |
| No | C[C@@H](NC(=O)COc1ccc2c(=O)c(-c3ccc(O)cc3)coc2c1)c1ccc(F)cc1 [PT-90, N-[(1R)-1-(4-fluorophenyl)ethyl]-2-[3-(4-hydroxyphenyl)-4-oxochromen-7-yloxy]acetamide] |
| No | O=c1c(-c2ccc(O)cc2)coc2cc(OCc3ccccn3)ccc12 [PT-91, 3-(4-hydroxyphenyl)-7-(2-pyridylmethoxy)chromen-4-one] |
| No | O=c1c(-c2ccc(O)cc2)coc2cc(OCCNCc3cccc(C(F)(F)F)c3)ccc12 [PT-99, 3-(4-hydroxyphenyl)-7-[2-({[3-(trifluoromethyl)phenyl]methyl}amino)ethoxy]chromen-4-one] |
| No | COC(=O)c1coc(COc2ccc3c(=O)c(-c4ccc(O)cc4)coc3c2)n1 [PT-101, methyl 2-{[3-(4-hydroxyphenyl)-4-oxochromen-7-yloxy]methyl}-1,3-oxazole-4-carboxylate] |
| No | O=C(O)c1coc(COc2ccc3c(=O)c(-c4ccc(O)cc4)coc3c2)n1 [PT-102, 2-{[3-(4-hydroxyphenyl)-4-oxochromen-7-yloxy]methyl}-1,3-oxazole-4-carboxylic acid] |

Same assay, conditions: up to 30 μM; No = no inhibition

| hMAO-A inhibition up to 30 μM | Structure (SMILES) |
| --- | --- |
| No | COC(=O)c1cccc(COc2ccc3c(=O)c(-c4ccc(O)cc4)coc3c2)c1 [PT-33, methyl 3-{[3-(4-hydroxyphenyl)-4-oxochromen-7-yloxy]methyl}benzoate] |
